Laboratory results taken from patent publication US20150315154A1 (COUNCIL OF SCIENTIFIC & INDUSTRIAL RESEARCH, priority 2012, published 2015).

Columns and labels:
[1] = test system: A549 cells (human lung carcinoma cells); experiment: cells; conditions: A549, 24 h, read-out: cell viability
From the text: (§4) The absorption obtained with reduced formazan with cells in the absence of lipids was taken to be 100. The assay was done after 24 (A) and 48 (B) hrs of the treatment.
(§5) The yellow tetrazolium salt (MTT) is reduced by mitochondrial dehydrogenase enzyme from metabolically active cells to form insoluble purple formazan crystals, which are solubilized by the addition of a mixture of DMSO & MeOH. The color can then be quantified by spectrophotometric method. For each cell type a linear relationship between cell number and absorbance is established, enabling accurate, straightforward quantification of changes in proliferation.
(§6) Cells were seeded at a density of 10000 (for B16F10, A549, MCF-7 & CHO) Or 15000 (for Raw264.7) per well in a 96-well plate for 18-24 h before the treatment. Cells were incubated with the liposomes of the presently described histidinylated cationic amphiphiles in the concentration range 40-16 μmol/mL in serum free medium. Immediately before the treatment, cells plated in the 96-well plate were washed with PBS (2×100 μL). After 4 h of incubation, the medium was replaced with fresh complete medium containing 10% FBS. The 10 μl of freshly prepared MTT solution in PBS (5 mg/mL) was added to each well of the plate after 24 or 48 h. The yellow tetrazolium salt (MTT) was reduced by mitochondrial dehydrogenase enzyme from metabolically active cells to form insoluble purple formazan crystals, which are solubilized by the addition of a mixture of DMSO & MeOH. The intensities of color were then quantified by spectrophotometric means. For each cell type a linear relationship between cell number and absorbance was established, enabling accurate, straightforward quantification of changes in proliferation.

[2] = test system: CHO cells (Chinese hamstar ovarian cancer cells); experiment: MTT cell viability assay, CHO cells; format: cell-based, Chinese hamster; conditions: CHO cell line; after 24 h as well as after 48 h
[3] = test system: B16F10 melanoma tumor; experiment: Tumour growth inhibition assay, B16F10 melanoma in C57BL/6J mice; format: in vivo, mouse; conditions: liposomes 1:1:1 with DOPC:Q16TG injected at tumour site on day 14, 16, 18, 21, 24
[4] = test system: B16F10 cells (mouse melanoma); experiment: FITC-Annexin V / PI flow cytometry apoptosis assay, B16F10 cells; format: cell-based; conditions: 25 μM/mL, 1:1:1 lipid:DOPC:Q16TG, 24 h
From the text: (§1) Significant increase of both FITC (fluorescence isothio cyanate) and PE (phycoerythrin) signal in histidinylated lipid treated B16F10 cells confirm apoptosis inducing property of these lipids after 24 hrs. In a flow cytometric quadrant (FITC vs PE), the lower left=(LL) panel represents normal cells and lower right (LR) panel represents early apoptotic cells which increase FITC signal only. Whereas upper right (UR) panel represents late apoptotic cells which increases both FITC and PE signaling and upper left (UL) panel represents necrotic cell only which increases PE signal only. […]
(§2) To quantify apoptotic cell death, we studied the in vitro apoptosis induction efficacy of the presently disclosed histidinylated cationic amphiphiles in mouse melanoma (B16F10) and human lung carcinoma (A549) as model malignant cells by flow cytometry using the FITC-Annexin V Apoptosis Detection Kit (Sigma). […]
(§3) B16F10 & A549 cells were treated with all four histidinylated lipids and liposomal formulation of hydrophobic anti-cancer drug dexamethasone containing DOPC and the helper lipid Q16TG (in 1:1:1 mole ratio of histidinylated lipid:DOPC:Q16TG, 25 μM/mL). […] After 24 h of treatment, cells were stained with annexin V and PI (according to manufacturer protocol, Sigma) and analysed in a flow cytometer (BD FacsCanto II). […]

[5] = MTT cell viability assay, normal RAW 264.7 cells; format: cell-based; conditions: mouse, RAW 264.7 cells (non-cancerous mouse macrophage cells), after 24 and 48 h
[6] = test system: mRNA of Bcl-2, Bcl-xL, BAX, Caspase 3, Caspase 9 in A549 cells; experiment: Semi-quantitative RT-PCR of apoptosis related genes in A549 cells; format: cell-based, human; conditions: 25 μM/mL, 24 h, vs untreated cells
Procedure: FIG. 11 Describes reverse transcription-PCR analysis of (BAX, BAK, Caspase 3 & 9) and anti-apoptotic genes (Bcl-2, Bcl-xL & NF-kB) in A549 cells after 24 h treatment with histidinylated lipids. […] After 4 h the medium was discarded and 3 mL of DMEM medium (Sigma) containing 10% fetal bovine serum was added to each well and left for 24 h. After 24 h, mRNAs were extracted from all the cells, cDNA was synthesized by Reverse transcription reaction and amplified by Polymerase Chain Reaction and finally resolved in 2% agarose gel.
Next, toward obtaining mechanistic insights into the origin of the observed in-vitro apoptosis inducing properties of the presently disclosed histidinylated lipids, we conducted conventional RT-PCR (Reversed transcriptase polymerase chain reaction) assays. Effect of the histidinylated lipids on the mRNA expression of various apoptosis related genes were analyzed by RT-PCR. The human lung carcinoma (A549) cells as a reference, were treated with the liposomal formulations of the histidinylated lipid containing DOPC & helper lipid Q16TG (25 μM/mL) and untreated cells were used as control. After 24 h, the total mRNA was isolated by conventional method using trizol. RT-PCR products were resolved on a 2% agarose gel electrophoresis and visualized with ethidium bromide. Our findings are consistent with the apoptosis inducing abilities of the presently disclosed histidinylated lipids being mediated via inhibition of transcription of the anti-apoptotic Bcl-2 & Bcl-xL genes & via activation of pro-apoptotic BAX & BAK signal transduction pathways. […] 18S m-RNA was used as loading control for all these lanes (FIG. 11).
Semi-quantitative RT-PCR analysis was performed to measure the changes in gene expression of treated cells in contrast to the untreated cells. A549 cells (ATCC) were seeded at a density of 10^6 cells/well in a 6 well plate usually 18-24 h before transfection. […] Cells were washed with phosphate-buffered saline (PBS), pH 7.4 (1×100 μL) and the 1 mL liposomal solutions were added to the cells. […] Then the cells were incubated at a humidified atmosphere containing 5% CO2 at 37° C. for 24 h. After 24 h of transfection, lipoplex treated and untreated cells were lysed directly in 6-well plates with 1 mL of TRIzol® reagent (Invitrogen) following removal of media and washing with PBS (1 mL). The cells were dissolved in TRI Reagent and cell lysates were pipetted several times to clear the haziness. Cell lysates were taken in 1.5 mL centrifuge tubes, after 10 min 0.2 mL chloroform was added. The samples were covered tightly and shaken vigorously for 15 sec, incubated for 10 min at room temperature and centrifuged at 14,000×g for 15 min at 4° C. Following centrifugation, the mixture separates into a lower red phenol-chloroform phase, interphase and the colourless upper aqueous phase. RNA remains exclusively in the aqueous phase whereas DNA and proteins are in the interphase and organic phase. Aqueous phase was transferred in to a fresh tube; 0.8 mL of isopropanol was added and mixed with pipette, kept for 15 min at −20° C. and centrifuged at 20,000 g for 20 min at 4° C. The supernatant was removed and the RNA pellet was washed with 500 μL cold 75% ethanol and centrifuged at 20,000 g for 10 min at 4° C. Ethanol was aspirated out and the pellet air-dried by inverting the tube. Finally the RNA pellet was dissolved in 15 μL of DEPC treated water, the ODs measured at 260 and 280 nm and the concentrations and purities of RNAs were calculated.

[7] = in vitro; conditions: African green monkey, COS-1 cells (non-cancerous)
From the text: as §4, §5, §6

[8] = test system: A549 cells (human lung carcinoma); experiment: FITC-Annexin V / PI flow cytometry apoptosis assay, A549 cells; format: cell-based; conditions: 25 μM/mL, 1:1:1 lipid:DOPC:Q16TG, 24 h
From the text: as §1, with “FITC” for “FITC (fluorescence isothio cyanate)”, “PE” for “PE (phycoerythrin)”, “A549” for “B16F10”, “inducibility” for “inducing”, “left (LL)” for “left=(LL)”
as §2, §3

[9] = test system: non-cancerous healthy COS-1 cells; conditions: normal COS-1 cells; after 24 and 48 h
From the text: as §4, §5, §6

| SMILES | viability at 40 µM [1] [%] | cytotoxicity [2] | tumor growth inhibition [3] | apoptosis induction (annexin V / PI) [4] | viability [5] [%] | Bcl-2 mRNA level [6] | Bcl-xL mRNA level [6] | Caspase 3 expression [6] | Caspase 9 expression [6] | expression of pro-apoptotic gene BAX [6] | viability [7] [%] | apoptosis induction (annexin V / PI) [8] | cell viability [9] [%] |
| --- | --- | --- | --- | --- | --- | --- | --- | --- | --- | --- | --- | --- | --- |
| CCCCCCCCCCCCCCCCOC(=O)C[C@H](NC(=O)[C@@H](N)Cc1c[nH]cn1)C(=O)OCCCCCCCCCCCCCCCC | 20 to 40 | most potent cytotoxicity | highest tumor growth inhibition | enhanced apoptosis | > 80 | significantly decreased mRNA levels | significantly decreased mRNA levels | up regulation | up regulation | up regulation | ~70 | enhanced apoptosis |  |
| CCCCCCCCCCCCCCCCCCOC(=O)C[C@H](NC(=O)[C@@H](N)Cc1c[nH]cn1)C(=O)OCCCCCCCCCCCCCCCCCC | 20 to 40 |  | moderate tumour growth inhibition |  | > 80 | did not show significant down regulation | did not show significant down regulation | up regulation | up regulation | up regulation | ~70 |  |  |
| CCCCCCCCCCCCCCCCOC(=O)CC[C@H](NC(=O)[C@@H](N)Cc1c[nH]cn1)C(=O)OCCCCCCCCCCCCCCCC | 20 to 40 | most potent cytotoxicity | highest tumor growth inhibition | enhanced apoptosis | > 80 | significantly decreased mRNA levels | significantly decreased mRNA levels | up regulation | up regulation | up regulation | ~70 | enhanced apoptosis |  |
| CCCCCCCCCCCCCCCCCCOC(=O)CC[C@@H](NC(=O)[C@@H](N)Cc1ncc[nH]1)C(=O)OCCCCCCCCCCCCCCCCCC.Cl.Cl [HE-18, 2-((S)-2-ammonio-3-((R)-1,5-bis(octaadecyloxy)-1,5-dioxopentan-2-ylamino)-3-oxopropyl)-1H-imidazol-3-iumchloride] |  | most potent cytotoxicity | moderate tumour growth inhibition |  |  | did not show significant down regulation | did not show significant down regulation | up regulation | up regulation | up regulation |  |  | ~70 |
